# Entries after “also recorded” stand apart in the source; their conditions may differ. Where two headings read alike, the source gives them in different places.
# What was measured:
# Type in all cases: physicochemical
# [1] = Stability of the polymorphic form (metastable or stable); conditions: room temperature and higher temperatures up to 120° C.
# [2] = Comparative dissolution of Imatinib mesylate capsules 100 mg (α2 and β-forms)
# [3] = Stability of α2 form under accelerated stress conditions in bulk and formulated capsule, XRPD
# [4] = Hygroscopicity
# [5] = Flow properties / suitability for solid dosage forms
# [6] = Heat stability of α2-crystal form, examined by XRPD; conditions: for Polymorph form detected after heating: XRPD
# Source text: Pure α2-crystal polymorph 1 gm prepared by the process described in Example 1 was taken in a boiling test tube and heated gradually in oil bath the substance was examined by XRPD. The results are tabulated below
# [7] = 0 Month at 40 ± 2° C./75 ± 5% RH
# [8] = 1 Month at 40 ± 2° C./75 ± 5% RH
# [9] = 2 Months at 40 ± 2° C./75 ± 5% RH
# [10] = 3 Months at 40 ± 2° C./75 ± 5% RH
# [11] = 6 Months at 40 ± 2° C./75 ± 5% RH
structure (smiles),measurement,setting,value
"Cc1ccc(NC(=O)c2ccc(CN3CCN(C)CC3)cc2)cc1Nc1nccc(-c2cccnc2)n1 [α2 form, N-{5-[4-(4-methylpiperazino-methyl)-benzoylamido]-2-methylphenyl}-4-(3-pyridyl) 2-pyrimidine-amine]",Stability,[1]; listed as α2,stable
same,Stability,[1]; listed as α2-form,stable
same,Dissolution of the capsule formulation compared with the β-form formulation,[2],better dissolution characteristics
same,Dissolution in capsule formulation,[2]; during 30 min,Dissolution of more than 95%
same,Dissolution of the capsule formulation compared with the β-form formulation,[2]; listed as α2-form,comparable and even better
same,"Polymorph content of bulk imatinib mesylate, polymorph form detected",[3]; [7],α2 form
same,"Polymorph content of imatinib mesylate in formulated capsule, polymorph form detected",[3]; [7],α2 form
same,"Polymorph content of bulk imatinib mesylate, polymorph form detected",[3]; [8],α2 form
same,"Polymorph content of imatinib mesylate in formulated capsule, polymorph form detected",[3]; [8],α2 form
same,"Polymorph content of bulk imatinib mesylate, polymorph form detected",[3]; [9],α2 form
same,"Polymorph content of imatinib mesylate in formulated capsule, polymorph form detected",[3]; [9],α2 form
same,"Polymorph content of bulk imatinib mesylate, polymorph form detected",[3]; [10],α2 form
same,"Polymorph content of imatinib mesylate in formulated capsule, polymorph form detected",[3]; [10],α2 form
same,"Polymorph content of bulk imatinib mesylate, polymorph form detected",[3]; [11],α2 form
same,"Polymorph content of imatinib mesylate in formulated capsule, polymorph form detected",[3]; [11],α2 form
same,Conversion to β-polymorphic form in capsule,[3]; about 40° C. and about 75% relative humidity for 6 months,does not show any significant conversion
same,Conversion over time to form β,"[3]; bulk form or dosage form, about 40° and about 75% relative humidity, at least about 6 months",does not substantially convert
same,Stability at normal and accelerated stress conditions,[3]; in bulk and formulated capsule form,stable
same,Hygroscopicity,[4],Non-hygroscopic
same,"Flow properties of the formulations, α2 form compared with β-form",[5]; same excipient composition,comparable
same,Flow properties,[5]; suitability for pharmaceutical solid dosage forms,Found to be well suited for
same,Polymorph form detected after heating,"[6]; 110° C., 2 hours",α2 form
same,Polymorph form detected after heating,"[6]; 110° C., 4 hours",α2 form
same,Heat stability,[6]; 120° C. for 6 hours,non-metastable and stable; also recorded: fairly stable to heat
same,Polymorph form detected after heating,"[6]; 120° C., 2 hours",α2 form
same,Polymorph form detected after heating,"[6]; 120° C., 4 hours",α2 form
same,Polymorph form detected after heating,"[6]; 120° C., 6 hours",α2 form
